In patent US12673022B2, “Drug delivery system using solution” (Kyoto University, priority 2018, dated 2026):

System: human DMD exon 45 knock-in/mouse Dmd exon 44 knock-out mouse tibialis anterior muscle
Experiment: Exon skipping efficiency in skeletal muscle (human DMD exon 45)
Format: in vivo
Settings: Example 7; administration solution 3: 25 mM or 250 mM 6-phospho-D-gluconic acid or N-carbamyl-L-aspartic acid, 158 mM sodium chloride, hEx45 #1 and #23 gRNA/Cas9; 50 μL once, day 7; Dunnett's test; FIG. 11
Procedure: Cas9 protein (120 μg), hDMD Ex45 #1 gRNA (15 μg), hDMD Ex45 #23 gRNA (15 μg) and 10×PBS (25 μL) were mixed and a 500 mM compound stock solution was added, and then, 500 mM compound stock solution was added to the mixture so as to obtain final concentrations: […], […], 300 ng/μL hDMD Ex45 #23 gRNA, 158 mM sodium chloride, 25 mM or 250 mM compound and diluted with UltraPure DNase/RNase-Free Distilled Water up to a liquid volume of 250 μL and incubated at normal temperature for 15 minutes. The Cas9 protein herein was subjected to buffer replacement with 250 mM sodium chloride by use of Amicon® Ultra 2 mL Centrifugal Filters and then put in use […]
To the tibialis anterior muscle of each of 4 weeks-old male human DMD exon 45 knock-in/mouse Dmd exon 44 knock-out mice, administration solution 3 (50 μL) was administered once. […] Subsequently, a product with skipping was quantitatively measured by use of FastStart Universal Probe Master (Roche), the primers represented by SEQ ID Nos. 14 and 15 and the probe of sequence 16. The product without skipping was quantitatively measured by use of FastStart Universal Probe Master (Roche), the primers represented by SEQ ID Nos. 17 and 18 and the probe of sequence 19. Each of the PCR products was measured by use of ViiA7™ real time PCR system. […]

With `NC(=O)N[C@@H](CC(=O)O)C(=O)O` [N-Carbamyl-L-aspartic acid] the “Exon skipping activity (skipping efficiency %) compared to 250 mM GABA” value was “statistically significant results compared to 250 mM GABA”.
